Results on four molecules are retold here after US20110065760A1, “COMPOUNDS FOR THE INHIBITION OF ROTAMASES AND USE THEREOF” (Jerini AG, priority 2002, published 2011).

Structures are written as SMILES. Where two headings read alike, the source gives them in different places.

Data set [1] in a line: WST-1 cytotoxicity assay, HL-60. It counts as cell-based. The conditions noted are these: human, HL-60 cells (acute myeloid leukemia); WST-1, 48 h incubation; read-out: EC50 class, cytotoxic effect, CL-1 (HL-60). The essentials:
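Human tumour cell lines in culture were exposed to compounds at 37° C for 48 h, then given WST-1. Viability was read as formazan absorbance at (450 vs. 620) nm.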

The test system of a further data set is Hela cells. Put plainly: DAPI staining. It counts as cell-based, human. The conditions noted are these: FIG. 3. As to the method:
Hela cells grown on poly-L-Lys-coated coverslips were fixed with 2% paraformaldehyde/MeOH.
Cellular DNA was stained with DAPI staining buffer (100 mM Tris (pH 7.4), 150 mM NaCl, 1 mM CaCl2, 0.5 mM MgCl2, 0.1% nonidet P-40, 1 μg/ml DAPI (Molecular Probes)). All the steps were performed at room temperature, and cells were washed two times with PBS after each step. Finally, cells were mounted in 80% glycerol/PBS.

In a further data set the target is hCyp18 (Homo sapiens, UniProt P62937). Nature of the data set: protease-coupled PPIase assay, hCyp18. It counts as biochemical. The conditions noted are these: 10 nM hCyp18, substrate Suc-Ala-Phe-Pro-Phe-pNA, chymotrypsin, pH 7.8, 6° C.; read-out: IC50 class, Target T-3 (hCyp18).
Chain of hCyp18 (P62937 whole entry): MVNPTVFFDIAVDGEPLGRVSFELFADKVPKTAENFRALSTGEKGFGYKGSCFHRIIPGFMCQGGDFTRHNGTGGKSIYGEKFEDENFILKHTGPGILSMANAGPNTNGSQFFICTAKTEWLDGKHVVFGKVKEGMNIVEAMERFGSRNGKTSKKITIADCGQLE
The target in the next data set is EcParvulin (Escherichia coli, UniProt P0A9L5). Put plainly: protease-coupled PPIase assay, EcParvulin. It counts as biochemical.
Chain of EcParvulin (P0A9L5 whole entry): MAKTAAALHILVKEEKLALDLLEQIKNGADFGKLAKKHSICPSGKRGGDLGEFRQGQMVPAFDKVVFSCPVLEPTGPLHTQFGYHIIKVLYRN
The target of another data set is LpCyp18 (Legionella pneumophila, UniProt Q5ZRZ4). Put plainly: biochemical. The conditions noted are these: IC50 class, Target T-4 (LpCyp18).
Chain of LpCyp18 (Q5ZRZ4 1-164): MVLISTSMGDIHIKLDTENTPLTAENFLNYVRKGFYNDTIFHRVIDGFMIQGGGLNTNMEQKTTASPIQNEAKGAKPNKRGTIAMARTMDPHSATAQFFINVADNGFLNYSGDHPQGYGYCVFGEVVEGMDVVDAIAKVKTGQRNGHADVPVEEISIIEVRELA
In a further data set the target is hPin1 (Homo sapiens, UniProt Q13526). Nature of the data set: protease-coupled PPIase assay, hPin1. It counts as biochemical. The conditions noted are these: 6 nM hPin1, substrate Ac-Ala-Ala-Ser(PO3H2)-Pro-Arg-pNA, trypsin, pH 7.8, 6° C.; read-out: IC50 class, Target T-1 (hPin1).
Chain of hPin1 (Q13526 whole entry): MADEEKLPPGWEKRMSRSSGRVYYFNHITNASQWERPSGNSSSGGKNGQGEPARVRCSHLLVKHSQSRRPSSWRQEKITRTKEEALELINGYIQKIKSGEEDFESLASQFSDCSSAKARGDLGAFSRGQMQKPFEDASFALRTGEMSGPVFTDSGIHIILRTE
The subject of data set [2] is cyclin D1 in MCF-7 and HeLa cells. Put plainly: Cyclin D1 down regulation (western blot marker analysis). It counts as cell-based, human. As to the method: MCF-7 (5×10^5 cells/well) and HeLa cells (1.5×10^5 cells/well) were seeded in 6-well plates and incubated at 37° C. over night. Compounds or DMSO (final solvent concentration 0.1%) were added to the cells and incubated for different times as indicated. Subsequently, cells were lysed in RIPA buffer for 30 min on ice and centrifuged for 20 min at 4° C. After addition of electrophoresis sample buffer (4×) and 50 mM DTT to the supernatant, samples were boiled for 4 min at 95° C. Samples (equivalent to 2×10^5 cells/well) were run on a 15% SDS gel followed by blotting onto PVDF membrane.
The membrane was blocked for 1 h in 10 mM Tris (pH 7.5), 100 mM NaCl, 0.1% Tween-20 and 5% non-fat dry milk (blocking buffer) and incubated for 1 h with mouse anti-hCyclin D1 monoclonal antibody (clone DCS-6, BD Biosciences) diluted to 1 μg/ml in blocking buffer. Blots were washed 3×10 min with 10 mM Tris (pH 7.5), 100 mM NaCl, 0.1% Tween-20 (washing buffer) and incubated with 0.7 μg/ml peroxidase-conjugated sheep anti-mouse IgG (Sigma) in blocking buffer for 1 h. After washing 3×10 min with washing buffer, the plot was developed with the ECL+ detection kit (Amersham Biosciences).
A general note: A western blot detects proteins with antibodies after separation by electrophoresis.

A further data set concerns the target hFKBP12 (Homo sapiens, UniProt P62942). Put plainly: protease-coupled PPIase assay, hFKBP12. It counts as biochemical. The conditions noted are these: 20 nM hFKBP12, substrate Suc-Ala-Phe-Pro-Phe-pNA, chymotrypsin, pH 7.8, 6° C.; read-out: IC50 class, Target T-2 (hFKBP12).
The nature of data set [3]: WST-1 cytotoxicity assay, Caco-2. It counts as cell-based. The conditions noted are these: human, Caco-2 cells (colon adenocarcinoma); WST-1, 48 h incubation; read-out: EC50 class, cytotoxic effect, CL-4 (Caco-2). As to the method: (§1) For this cytotoxic evaluation of the compounds the commercial available WST-1 assay (Roche) was used according to the manufacturer's instructions. The assay is based on the cleavage of the tetrazolium salt WST-1 by mitochondrial dehydrogenases found in viable cells. In general compounds were added to cells cultured in 96-well plates at 37° C. After 48 h of incubation 10 μl of WST-1 solution was added. The formazan dye was analyzed with an ELISA plate reader at (450 vs. 620) nm. CL-1: human acute myeloid leukemia, HL-60 CL-2: human cervix carcinoma, HeLa CL-3: human prostate carcinoma, PC-3 CL-4: human colon adenocarcinoma, Caco-2 CL-5: human breast adenocarcinoma, MCF-7
A general note: Tetrazolium assays rely on reduction of a dye to a coloured formazan, in cell work by metabolically active cells.

The subject of a further data set is HL-60 cells. Nature of the data set: FACS measurements and TUNEL assay (Apo-Direct kit). It counts as cell-based, human. The conditions noted are these: FIG. 2. The text has this: Enari M. Sakahira H. Yokoyama H. Okawa K. Iwamatsu A. Nagata S. A caspase-activated DNase that degrades DNA during apoptosis, and its inhibitor ICAD [erratum appears in Nature 1998 May 28; 393(6683):396.]. Nature. 391:43-50, 1998 • Darzynkiewicz Z. Juan G. Li X. Gorczyca W. Murakami T. Traganos F. Cytometry in cell necrobiology: analysis of apoptosis and accidental cell death (necrosis). Cytometry. 27:1-20, 1997
Apoptotic HL-60 cells were detected by FACS analysis of FITC-dUTP-labelled DNA breaks using the Apo-Direct kit (BD-Pharmingen) according to the manufacturer's protocol.

The target in the next data set is T1, Papain (Carica papaya, UniProt P00784).
T1 sequence (P00784 134-345): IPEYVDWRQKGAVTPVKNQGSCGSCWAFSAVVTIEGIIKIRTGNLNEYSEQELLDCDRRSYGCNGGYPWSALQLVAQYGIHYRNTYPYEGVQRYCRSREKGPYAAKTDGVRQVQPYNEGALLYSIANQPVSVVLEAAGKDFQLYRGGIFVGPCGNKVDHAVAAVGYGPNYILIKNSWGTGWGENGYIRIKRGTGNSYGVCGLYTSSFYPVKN
Put plainly: papain assay. It counts as biochemical. The conditions noted are these: 16 μg/ml papain, 2 mM Bz-DL-Arg-pNA, pH 6.5, 30° C., 30 min incubation; read-out: IC50 class, Target T-6 (Papain). Summed up: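 Enzyme pre-incubated 30 min with 1-100 μM compound at 30° C, then pNA substrate added; 4-nitroaniline release read at 390 nm. Trypsin: 0.1 μg/ml, 120 μM Ac-Ala-Ala-Ser(PO3H2)-Pro-Arg-pNA, HEPES pH 7.8; cathepsin B: 0.2 μg/ml, 2 mM Z-Arg-Arg-pNA, phosphate/EDTA/Brij 35 pH 5.8; papain: 16 μg/ml, 2 mM Bz-DL-Arg-pNA, phosphate/L-Cys/EDTA pH 6.5.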

In the next data set the target is T2, Trypsin (UniProt P00760).
T2 sequence (P00760 1-246): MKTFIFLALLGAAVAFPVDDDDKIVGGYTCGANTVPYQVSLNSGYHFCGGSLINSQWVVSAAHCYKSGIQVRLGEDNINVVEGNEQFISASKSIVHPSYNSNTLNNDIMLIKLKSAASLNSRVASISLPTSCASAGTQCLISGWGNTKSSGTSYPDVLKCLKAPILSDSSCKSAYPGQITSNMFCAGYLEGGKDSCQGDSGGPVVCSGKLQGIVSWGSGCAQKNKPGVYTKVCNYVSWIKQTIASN
Put plainly: trypsin assay. It counts as biochemical. The conditions noted are these: 0.1 μg/ml trypsin, 120 μM Ac-Ala-Ala-Ser(PO3H2)-Pro-Arg-pNA, pH 7.8, 30° C., 30 min incubation; read-out: IC50 class, Target T-7 (Trypsin). As to the method:
(§2) In order to investigate the impact of some of the inventive compounds on the activity of key proteases the following assay was performed: Protease activities were measured spectrophotometrically at 30° C. according to Schomburg and Salzmann (Schomburg, B.; Salzmann M. GBF: Enzyme Handbook. Springer Verlag, Berlin Heidelberg, 1991) and Bergmeyer et al. (Bergmeyer, H. U.; Bergmeyer, J.; Graβl, M. Methods of Enzymatic Analysis, Vol. V Enzymes 3: Peptides, Proteinases and Their Inhibitors. pp 55-371, VCH, Weinheim, 1988). The release of 4-nitroaniline was determined at 390 nm with a Spectramax Plus UV/Vis spectrophotometer (Molecular Devices). The cathepsin B assay was performed in a reaction mixture containing 0.2 μg/ml cathepsin B, 2 mM Z-Arg-Arg-pNA in 88 mM KH2PO4, 12 mM Na2HPO4, 1.33 mM EDTA, 0.03% Brij 35 (pH 5.8). The trypsin assay was carried out in a reaction mixture containing 0.1 μg/ml trypsin and 120 μM Ac-Ala-Ala-Ser(PO3H2)-Pro-Arg-pNA in 35 mM HEPES (pH 7.8) and the papain assay in a mixture consisting of 16 μg/ml papain and 2 mM Bz-DL-Arg-pNA in 10 mM Na2HPO4, 2 mM L-Cys, 5 mM EDTA (pH 6.5). In general, reactions were started by addition of peptide substrate after a 30 min incubation of 1-100 μM effector with given concentrations of enzyme.

Data set [4] is described as follows: WST-1 cytotoxicity assay, MCF-7. It counts as cell-based. The conditions noted are these: human, MCF-7 cells (breast adenocarcinoma); WST-1, 48 h incubation; read-out: EC50 class, cytotoxic effect, CL-5 (MCF-7). The protocol: as §1
A short description of data set [5]: WST-1 cytotoxicity assay, HeLa. It counts as cell-based. The conditions noted are these: human, HeLa cells (cervix carcinoma); WST-1, 48 h incubation; read-out: EC50 class, cytotoxic effect, CL-2 (HeLa). As to the method: as §1
For a further data set, the target named is cathepsin B (Homo sapiens, UniProt P07858). Nature of the data set: cathepsin B assay. It counts as biochemical. The conditions noted are these: 0.2 μg/ml cathepsin B, 2 mM Z-Arg-Arg-pNA, pH 5.8, 30° C., 30 min incubation; read-out: IC50 class, Target T-8 (Cathepsin). As to the method:
as §2

For data set [6], the system named is tumor cell lines (HL-60, HeLa, PC-3, Caco-2, MCF-7). Put plainly: WST-1 cytotoxicity assay, tumor cell lines (panel statement). It counts as cell-based, human. The conditions noted are these: WST-1, 48 h; table 4. The protocol: as §1
A short description of data set [7]: WST-1 cytotoxicity assay, PC-3. It counts as cell-based. The conditions noted are these: human, PC-3 cells (prostate carcinoma); WST-1, 48 h incubation; read-out: EC50 class, cytotoxic effect, CL-3 (PC-3). As to the method: as §1

Usually EC50 stands for the concentration at which the effect is half-maximal. Broadly, the IC50 is the concentration at which inhibition is half-maximal.

Chain of hFKBP12 (P62942 whole entry): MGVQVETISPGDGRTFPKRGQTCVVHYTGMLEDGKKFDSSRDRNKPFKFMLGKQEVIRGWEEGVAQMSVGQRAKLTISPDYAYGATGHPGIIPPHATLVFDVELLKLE

Regarding `CC(C)(C)CC(C)(C)NC(=O)Nc1cc(Cl)cc(Cl)c1O` [Compound 30], the EC50 at 48 h in data set [1] and in data set [3] was < 10 µM in each case. Besides, the “induction of apoptosis (DAPI staining, fluorescence microscopy)” value in the data set with Hela cells is reported as “induce apoptosis”. Besides, the IC50 is > 100 µM at hCyp18; > 100 µM at EcParvulin (20 nM EcParvulin, substrate Suc-Ala-Phe-Pro-Phe-pNA, chymotrypsin, pH 7.8, 6° C., read-out: IC50 class, Target T-5 (EcParv)); > 100 µM against LpCyp18; 1 to 10 µM on hPin1; > 100 µM on hFKBP12. Moreover, the “cyclin D1 down regulation” value in data set [2] is “particular relevance”.
With `Cc1c(Cl)cc(NC(=S)Nc2ccc(C(F)(F)F)cc2)c(O)c1Cl` [Compound 264], the EC50 at 48 h in data set [1], in data set [4], in [5], in data set [7] and in [3] was < 10 µM each time. Further, the “induction of apoptosis (FACS analysis of FITC-dUTP-labelled DNA breaks)” value in the data set with HL-60 cells is reported as “induce apoptosis”. Also, the “induction of apoptosis (DAPI staining, fluorescence microscopy)” value in the data set with Hela cells is on record as “induce apoptosis”. The 50% inhibitory concentration (IC50) at Papain is > 100 µM; at Trypsin, > 100 µM; on hPin1, < 1 µM; on cathepsin B, > 100 µM. Also, in [2], the “cyclin D1 down regulation” value was “particular relevance”. Besides, the “cytotoxic effect on the tumor cell lines tested” value (from here on “cytotoxic effect”) in data set [6] is “particular relevance”.
Consider `Oc1c(NCc2ccccc2Sc2ccc(Cl)cc2)ccc(F)c1F` [Compound 399], for which the EC50 at 48 h in [1], in data set [4], in data set [5] and in data set [7] was < 10 µM throughout. Moreover, the “induction of apoptosis (DAPI staining, fluorescence microscopy)” value in the data set on Hela cells is reported as “induce apoptosis”. In addition, the IC50 on Papain is > 100 µM; on hCyp18, 50 to 100 µM; against EcParvulin, 10 to 50 µM; against LpCyp18, 50 to 100 µM; on hPin1 it was < 1 µM; on cathepsin B, 10 to 50 µM. Further, on hFKBP12, the IC50 was > 100 µM. Moreover, the “cyclin D1 down regulation” value in data set [2] is “particular relevance”. Also, in data set [6], the “cytotoxic effect” value was “particular relevance”.
Regarding `CC(CC(=O)Nc1cc(Cl)c(O)c(Cl)c1)CC(C)(C)C` (stereo not shown) [Compound 1273], the EC50 at 48 h is 10 to 50 µM in data set [1], 50 to 100 µM in data set [5], 10 to 50 µM in data set [7] and 10 to 50 µM in data set [3]. Further, the IC50 was > 100 µM at Papain; > 100 µM at Trypsin; > 100 µM at hCyp18; 1 to 10 µM against EcParvulin; > 100 µM at LpCyp18; < 1 µM on hPin1. Moreover, the concentration for half-maximal inhibition (IC50) at cathepsin B and at hFKBP12 was > 100 µM each time. Also, in data set [6], the “cytotoxic effect” value is “particular relevance”.
